Measured values published in PMC5133935, “Hydrostatin-TL1, an Anti-Inflammatory Active Peptide from the Venom Gland of Hydrophis cyanocinctus in the South China Sea” (International Journal of Molecular Sciences, 2016).
“Also recorded” adds a separate entry of the source. No end group written: not given here.

What was measured:
[1] = test system: HEK-293 cells, TNF-α-mediated NF-κB and MAPKs signaling; test: Western blot, TNF-α-induced phosphorylation in HEK-293 cells; format: cell-based, human; settings: TNF-α 20 ng/mL, 10 min
Source text: (§1) The NF-κB and MAPKs pathways are key signaling pathways of TNF-α-mediated inflammation. Therefore, we analyzed the mechanisms underlying H-TL1-induced inhibition of TNF-α-mediated inflammation by Western blotting in HEK-293 cells. […] To identify the specific effects of H-TL1 on TNF-α downstream signaling, we induced IL-1β as a potent activator of NF-κB that is specific to that pathway.
(§2) The H. cyanocinctus specimens were captured during September 2005 in the South China Sea near Guangdong Province, People’s Republic of China. After collection, the snakes were killed, and the venom glands were isolated and immediately frozen in liquid nitrogen until use. HEK-293 human embryonic kidney and L929 mouse fibroblast cell lines were obtained from ATCC and cultured in Dulbecco’s modified Eagle’s medium (DMEM, Sigma-Aldrich, St. Louis, MO, USA) containing 10% (v/v) heat-inactivated fetal bovine serum (FBS, Gibco, BRL, Grand Island, NY, USA) at 37 °C in an atmosphere of 5% CO2. The BLT5403 E. coli strain (used as the phage host strain) was from Novagen (Merck) and was cultured at 37 °C for propagation. The specific pathogen-free (SPF) male BALB/c and C57BL/6 mice (both 6–8 weeks old), weighing 20 ± 2 g were purchased from Shanghai SLAC Laboratory Animal Co., Ltd. (Shanghai, China). The mice were housed in animal facilities with 50% humidity under a 12-h light-dark cycle, fed a standard pellet diet, and provided with tap water ad libitum. The animal experimental protocols in this research, including venom gland isolation and the mouse study, were approved by the Animal Care and Use Committee of the Second Military Medical University.
(§3) For Western blotting, the cell or tissue specimen extracts were resolved in a 10% SDS-PAGE gel, and then the separated proteins were transferred to a nitrocellulose filter membrane. The antigens were detected by using specific antibodies against total and phosphorylated IκB, p38, ERK, and JNK followed by incubation with the respective secondary antibodies. GAPDH was simultaneously detected as the control to compare the protein loading in each lane. The mouse monoclonal anti-IκB, mouse monoclonal anti-p-IκB (Ser32/36), rabbit monoclonal anti-ERK, and rabbit monoclonal anti-p-ERK (Thr202/Tyr204) antibodies were from Cell Signaling Technologies (Beverly, MA, USA). The mouse polyclonal anti-p-p38 (Thr180/Tyr182), rabbit polyclonal anti-p38, rabbit monoclonal anti-p-JNK (Thr183/Tyr185), and mouse monoclonal anti-JNK antibodies were from Thermo Fisher Scientific (Rockford, IL, USA). The rabbit monoclonal anti-GAPDH antibody was from Santa Cruz Biotechnology (Santa Cruz, CA, USA), and the fluorescent-labeled secondary antibodies were from Li-COR Biosciences (Lincoln, NE, USA).

[2] = test system: HEK-293 cells, TNF-α-induced expression of pro-inflammatory factors; test: Real-time PCR, TNF-α-induced gene expression in HEK-293 cells; format: cell-based, human; settings: TNF-α 20 ng/mL, 2^−ΔΔCt, GAPDH, n = 3
Source text: NF-κB activation through TNF-α/TNFR interactions upregulates the expression of chemokines and adhesion factors such as IL-8, TNF-α, ICAM-1, and VCAM-1 [25, 26]. To determine whether H-TL1 inhibits TNF-α-mediated pro-inflammatory activity, we further assessed the inhibitory activity of H-TL1 on TNF-α-induced expression of these genes in HEK-293 cells.
as §2
Total RNA was extracted from colon tissue specimens or cells using Trizol reagent (Takara) according to the manufacturer’s instructions and was then reverse transcribed using random primers. Real-time PCR was performed on a StepOne Real-Time PCR System (Applied Biosystems, Foster City, CA, USA) to analyze the mRNA expression levels of IL-8, TNF-α, IL-1β, IL-6, VCAM-1, and ICAM-1. The relative fold changes of target gene expression were comparatively quantified by the 2^−ΔΔCt method. GAPDH was chosen as the internal control gene, and samples without treatment were designated as the comparing reference. Primers used in this study were based on published sequences.

[3] = test system: IL-1β-induced phosphorylation of IκB; test: Western blot, IL-1β-induced phosphorylation of IκB; format: cell-based; settings: IL-1β as activator of NF-κB
Source text: as §1
as §3, with “The rabbit monoclonal anti-GAPDH antibody was from Santa Cruz Biotechnology (Santa Cruz, CA, USA), and the fluorescent-labeled secondary antibodies were from Li-COR Biosciences (Lincoln, NE, USA).” left out

TNF-α/TNFR2 = test: Competitive ELISA, inhibition of TNF-α binding to TNFR2; parameters: species or system human; settings: sTNFR2-coated plate, H-TL1 0–1 μM, n = 3
mammalian cells = test: Cytotoxicity toward mammalian cells (general statement); format: cell-based; settings: conclusion statement
[4] = test system: NF-κB and MAPK activation in colonic tissue of DSS mice; test: Western blot of colonic tissue in DSS-induced colitis; format: in vivo, mouse; settings: H-TL1 vs. vehicle, p-ERK (Thr202/Tyr204), p-JNK (Thr183/Tyr185), p-IκB (Ser32/36)
Protocol: as §3
To induce colitis, 6–8 week old male BALB/c mice were administered 2.5% DSS solution in their drinking water for 7–8 consecutive days, ad libitum. […] DAI was monitored during the entire experiment and was assessed according to the method described in Table 1.

Question: With ATSKPSLKC-OH [H-TL1] as the substance, how does the “concentration inhibiting TNF-α-mediated ERK (Thr202/Tyr204) phosphorylation” value [1] read?
Answer: Its value is 0.8 to 1.6 µM.

Question: And the “concentration inhibiting TNF-α-mediated p38 (Thr180/Tyr182) phosphorylation” value [1]?
Answer: The value was 0.8 to 1.6 µM.

Question: And the “concentration suppressing TNF-α-mediated IκB (Ser32/36) phosphorylation” value [1]?
Answer: Its value is 0.4 to 1.6 µM.

Question: And the “concentration suppressing TNF-α-mediated JNK (Thr183/Tyr185) phosphorylation” value [1]?
Answer: Its value is 0.4 to 1.6 µM.

Question: What about the “TNF-α-induced expression of ICAM-1” value [2] of the same substance?
Answer: The value was “suppresses TNF-α-induced expression of IL-8, TNF-α, ICAM-1, and VCAM-1 in a concentration-dependent manner”.

Question: What about the “TNF-α-induced expression of IL-8” value [2] of the same substance?
Answer: The value was “suppresses TNF-α-induced expression of IL-8, TNF-α, ICAM-1, and VCAM-1 in a concentration-dependent manner”.

Question: What about the “TNF-α-induced expression of TNF-α” value [2] of the same substance?
Answer: Its value is “suppresses TNF-α-induced expression of IL-8, TNF-α, ICAM-1, and VCAM-1 in a concentration-dependent manner”.

Question: And the “TNF-α-induced expression of VCAM-1” value [2]?
Answer: Its value is “suppresses TNF-α-induced expression of IL-8, TNF-α, ICAM-1, and VCAM-1 in a concentration-dependent manner”.

Question: And the “inhibition of IL-1β-induced phosphorylation of IκB” value [3]?
Answer: The value was “failed to inhibit the phosphorylation of IκB induced by IL-1β”.

Question: What about the “inhibition of TNF-α/TNFR2 binding, in words” value (TNF-α/TNFR2) of the same substance?
Answer: Its value is “had little impact on TNF-α/TNFR2 interactions; also recorded: the percent inhibition had no apparent linear relation to the H-TL1 concentration”.

Question: What about the “effect on the binding of TNF-α with TNFR2 (inhibition)” value (TNF-α/TNFR2; hrTNF-α 20 ng/mL) of the same substance?
Answer: The value was “approximately 20%”.

Question: What about the “cytotoxicity toward mammalian cells” value (mammalian cells) of the same substance?
Answer: Its value is “little cytotoxicity toward mammalian cells”.

Question: And the “activation (phosphorylation) of JNK, ERK, and IκB in colonic tissue” value [4]?
Answer: The value was “JNK, ERK, and IκB were activated; however, this effect was inhibited by H-TL1 treatment”.
